In patent publication US10413535B2, “Pharmaceutical compositions comprising an integrin ALPHA4 antagonist for use in treating ocular inflammatory conditions” (AXEROVISION, INC., priority 2015, dated 2019):
“Also recorded” adds a separate entry of the source. Where two headings read alike, the source gives them in different places.

Legend:
[1] = tested on: cells of draining cervical lymph nodes; assay: Flow cytometry of draining cervical lymph nodes, desiccating stress 1 day; format: in vivo, mouse; conditions: 1 day DS; for CD11c+ dendritic cells in draining cervical lymph nodes / CD11c+/MHC II+ dendritic cells in draining cervical lymph nodes: listed as compound of formula I
Method: Female C57BL/6 mice, aged 6 to 8 weeks, were subjected to DS for 5 days (DS5) as described previously (de Paiva et al., 2006b; Niederkorn et al., 2006). Topical bilateral treatment with 1 eye drop per eye (2 μL volume) or subcutaneous injection (4 μL volume), 2 times per day, was initiated on day 1 concurrently with DS and continued through day 4. Treatment with the compound of formula I or dexamethasone phosphate 0.1% was compared to correspondingly treated vehicle controls. Mice were randomized to receive one of the test articles. Control mice were kept in a non-stressed (NS) environment maintained at 50-75% relative humidity without exposure to airflow or scopolamine and were not treated with test or control article. Treatment effects were assessed on corneal staining with Oregon Green Dextran (OGD); expression of inflammatory markers in ocular surface tissues by real time PCR; cell population analysis in draining cervical lymph nodes by FACS analysis; conjunctival T cell infiltration by immunohistochemistry.
Cervical draining lymph nodes (CLN) were surgically excised, placed in a round culture plate with ˜8 mL of complete RPMI media and smashed between two frosted slides.
Single-cell suspensions of CLN from C57BL/6 mice, treated under DS conditions for 1 day, were prepared, centrifuged and sequentially filtered, as previously described (de Paiva et al., 2009a). Subsequently 1.0 mL of ACT solution was added for 30 seconds followed by 2.0 mL of complete RPMI. The cells were once again centrifuged and the supernatant aspirated. Cells were then re-suspended in 2.0 mL of complete RPMI and prepared for counting. Ten μL of Trypan Blue were used for counting and the cells were divided in tubes at 1×10^6 cells/mL. Subsequently, the cells were incubated on ice in 20 μL unconjugated anti-mouse CD16/CD32 (BD Pharmingen, San Diego, Calif.) followed by 80 μL of directly conjugated primary antibody or isotype. Finally the samples were washed with 1 mL PBS/1% FBS, centrifuged and re-suspend in 0.3 mL PBS/1% FBS containing 1:1000 of PI. The samples were stored at 4° C. until the analysis was performed with an A BD LSRII Benchtop cytometer. The data was analysed using BD Diva Software (BD Pharmingen) and FlowJo (TreeStar Inc).
Due to skewed distribution of OGD data, the analysis was done on the log 10 scale to make the data more normally distributed. Log 10 OGD data was averaged across two observers and the left and right eyes. The mixed effects ANOVA model included treatment group as a fixed effect and week as a random effect. 95% and 99% confidence intervals were constructed for the disease (5 day DS vs untreated group kept in separate vivarium) and compound treatment effects (treatment vs vehicle). As these comparisons were all pre-planned (comparing each treatment to its vehicle group), no adjustment was made for multiplicity. Log 10 scale treatment effect estimates and confidence limits were converted back to the original OGD scale, thus representing the estimate for the ratio of group geometric means and their confidence limits. For gene expression analysis, an unpaired T test was performed to compare drug and vehicle treatment. For flow cytometry analysis, a 2-way ANOVA with fixed treatment and random experiment effects was employed to test the treatment differences. The analysis was followed by Dunnett's multiple comparison procedure to compare each of the treatment groups with the vehicle group. T cell density was calculated for each section and averaged across sections for each animal. As the distribution of average cell density data was non-normal, it was analyzed by using non-parametric methods (Kruskal-Wallis procedure, followed by Dunn's multiple comparisons technique).
The draining CLN are an integral part of the immune cycle in DED (Pflugfelder et al., 2008; Schaumburg et al., 2011). […]

[2] = tested on: RPMI 8866 binding to CS-1; assay: CS-1 cell adhesion assay, RPMI 8866 cells; format: cell-based; conditions: Homo sapiens; RPMI 8866 cells to CS-1; identical duplicate values; read-out: Inhibition of cell adhesion (IC50)
Method: Jurkat J6 cells (human lymphoblast cell line) were grown as a suspension culture in RPMI 1640 supplemented with FCS (10%) and glutamine (2 mM). RPMI8866 cells (human B lymphoid cell line) were grown as a suspension culture in RPMI 1640 supplemented with FCS (10%) and glutamine (2 mM). RBL-2H3 cells (rat basophilic cell line) were cultured in Eagle's MEM plus Earles salts supplemented with 2 mM L-glutamine, 1 mM sodium pyruvate, 1× non-essential amino acids, 1 mM Na pyruvate 10% heat inactivated foetal calf serum.
Polystyrene 96-well microtitre plates were coated with CS-1 (connecting segment 1, a cell attachment domain of fibronectin) at a concentration of 0.01 mg/mL in bicarbonate buffer overnight at 4° C. The solution was aspirated and the plates washed twice with PBS. The plates were then incubated at room temperature in the presence of 3% BSA for 60 min, ‘flicked’ to expel the BSA and washed twice in bicarbonate buffer. J6 or RPMI cells (as required) were labelled with the fluorescent dye BCECF-AM (10 μM and 6×10^6 cells/mL) for 10 min at 37° C. before the excess was removed by centrifugation at 500 g for 5 min and the cells resuspended at a cell concentration of 1.2×10^7 cells/mL in HBSS. Equal volumes of HBSS containing the compound of formula I (over concentration range 19.0 pM to 5 μM) and cells were added to the CS-1 coated plates. […] The plates were counted in a Wallac Viktor.

[3] = PK study in rabbits, ocular tissue concentrations (LC-MS/MS); format: in vivo, New Zealand White rabbits; conditions: for Tmax: topical or ocular, both studies; for concentration at 6 h: persisted up to 6 hours
Method: The potassium salt of GW559090, referred to herein as GW559090A, was given to male New Zealand White rabbits by topical ocular administration as a single bilateral drop (Study #1: n=2 rabbits/4 eyes per time point; Study #2: n=3 rabbits/6 eyes per time point). At designated times (0.5, 1, 3, 6 hours post administration), ocular tissues were collected and processed for analysis. Concentrations of GW559090 were measured in cornea and bulbar conjunctiva by liquid chromatography with tandem mass spectrometry (LC-MS/MS).

[4] = topical treatment, vs vehicle (GW559090 30 mg/mL, 60 μg per eye; Dex 0.1%)
[5] = male, New Zealand White, rabbit, conjunctiva, topical, 40 μL (50 mg/mL) GW559090A, read-out: Conjunctival tissue concentration
[6] = male, New Zealand White, rabbit, cornea, topical, 40 μL (50 mg/mL) GW559090A, read-out: Corneal tissue concentration
[7] = single topical 40 μL (50 mg/mL) GW559090A

Cc1ccccc1OCC(=O)N[C@@H](CC(C)C)C(=O)N[C@@H](Cc1ccc(OC(=O)N2CCC(C(N)=O)CC2)cc1)C(=O)O [GW559090, (2S)-3-[4-({[4-(Aminocarbonyl)-1-piperidinyl]carbonyl}oxy)phenyl]-2-[((2S)-4-methyl-2-{[2-(2-methylphenoxy)acetyl]amino}pentanoyl)amino]propanoic acid]
CD4+ and CD8+ T cells in draining lymph nodes [1]: nor did treatment with the compound of formula I or dexamethasone decrease the number of T cells | CD11c+ dendritic cells in draining cervical lymph nodes ([1]; systemic (SC BID, 120 μg)): Neither systemic treatment with the compound of formula I nor topical treatment with dexamethasone phosphate produced the same effect; also recorded: no significant effect | CD11c+/MHC II+ dendritic cells in draining cervical lymph nodes ([1]; systemic (SC BID, 120 μg)): no significant effect | CD11c+ dendritic cells in draining cervical lymph nodes [1, 4]: reduced; also recorded: decreases | CD11c+/MHC II+ dendritic cells in draining cervical lymph nodes [1, 4]: reduced; also recorded: decreases | IC50 [2]: 24.5 nM | Mean cornea concentrations versus mean conjunctiva concentrations ([3]; 3 and 6 hour postdose): higher | Tmax ([3]; male, New Zealand White, rabbit, bulbar conjunctiva, single topical 40 μL (50 mg/mL) GW559090A, read-out: Tmax in bulbar conjunctiva): 60 min | concentration at 30 min [3, 5]: > 3000 ng/mL | concentration at 6 h [3, 5]: ~358 ng/mL | Tmax ([3]; male, New Zealand White, rabbit, cornea, single topical 40 μL (50 mg/mL) GW559090A, read-out: Tmax in cornea): 30 min | concentration at 30 min [3, 6]: > 3000 ng/mL | concentration at 3 h ([3]; male, New Zealand White, rabbit, cornea, topical, at 3 hours, 40 μL (50 mg/mL) GW559090A, read-out: Corneal tissue concentration): > 1000 ng/mL | concentration at 6 h [3, 6]: ~358 ng/mL | Mean conjunctiva concentrations quantifiable through [3, 7]: 6 h | Mean cornea concentrations quantifiable through [3, 7]: 6 h
